Assays:
Type in all cases: biochemical
[1] = target: FXa (Homo sapiens, UniProt P00742); assay: Selectivity: FXa inhibition, substrate Biophen CS-11(32); conditions: for FXa % (I) @ 250: at 250 (μM)
[2] = target: T1, thrombin (from human plasma) (Homo sapiens, UniProt P00734); assay: Selectivity: thrombin inhibition, substrate Biophen CS-21(66); conditions: 15 min preincubation; Tris buffer pH 8.3; 580 μM substrate
T1 construct: thrombin (from human plasma, Sigma); purchased Sigma; host or cells: human plasma
Method: (§1) The substrate and human enzyme were obtained from Nodia. The reaction was monitored at 405 nm, and the initial rate was determined between 0 and 0.25 absorbance units in 20 min. […] A 50 mM Tris buffer, pH 8.8, was used. From each inhibitor concentration, 5 μL was added, obtaining a final concentration from 0 to 250 μM in a total volume of 0.2 mL. Activity measurements were routinely performed in duplicate. […] IC50 values were obtained by fitting the data with the four-parameter logistics equation using Grafit 5.
(§2) The IC50 values for plasmin (from human plasma, Sigma), tPA (recombinant, Nodia), thrombin (from human plasma, Sigma), and FXa were determined in the same way as for uPA.
(§3) For tPA and thrombin, Tris buffer, pH 8.3, was used, for FXa, Tris buffer, pH 8.3, for plasmin, Tris buffer, pH 7.4, was used.

[3] = target: T2, plasmin (from human plasma) (Homo sapiens, UniProt P00747); assay: Selectivity: plasmin inhibition, substrate Biophen CS-21(66); conditions: 15 min preincubation; Tris buffer pH 7.4; 580 μM substrate
T2 construct: purchased Sigma; host or cells: human plasma
T2 sequence (P00747 581-810 limits assumed): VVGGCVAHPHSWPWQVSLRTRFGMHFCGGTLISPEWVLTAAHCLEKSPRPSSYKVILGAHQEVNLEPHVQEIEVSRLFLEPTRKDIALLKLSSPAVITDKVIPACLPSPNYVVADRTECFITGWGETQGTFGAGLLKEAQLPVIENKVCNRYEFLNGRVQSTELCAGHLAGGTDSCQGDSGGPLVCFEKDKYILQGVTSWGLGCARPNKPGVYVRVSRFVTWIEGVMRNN
T2 sequence (P00747 97-580 partner limits assumed): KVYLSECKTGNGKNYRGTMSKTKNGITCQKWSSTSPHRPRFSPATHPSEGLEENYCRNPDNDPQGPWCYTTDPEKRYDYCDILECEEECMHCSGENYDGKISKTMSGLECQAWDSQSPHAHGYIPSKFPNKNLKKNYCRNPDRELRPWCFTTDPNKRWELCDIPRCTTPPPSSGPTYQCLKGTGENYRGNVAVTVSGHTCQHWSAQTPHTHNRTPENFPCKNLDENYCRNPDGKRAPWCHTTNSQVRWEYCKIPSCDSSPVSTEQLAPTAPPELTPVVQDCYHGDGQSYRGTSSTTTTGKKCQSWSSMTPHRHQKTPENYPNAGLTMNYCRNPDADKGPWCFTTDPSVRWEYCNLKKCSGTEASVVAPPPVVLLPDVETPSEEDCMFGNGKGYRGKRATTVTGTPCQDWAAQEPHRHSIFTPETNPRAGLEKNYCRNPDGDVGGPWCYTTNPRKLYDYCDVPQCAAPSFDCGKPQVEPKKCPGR
Method: as §1, §2, §3

[4] = target: T3, uPA (Homo sapiens, UniProt P00749); assay: uPA inhibition: in vitro evaluation, IC50 with chromogenic substrate Biophen CS-61(44); conditions: 15 min preincubation at 37° C.; Tris buffer pH 8.8; 250 μM substrate
T3 construct: purchased Nodia
Method: Enzymatic activity was measured at 37° C. in a Spectramax 340 (Molecular Devices) microtiter plate reader using the chromogenic substrate Biophen CS-61(44) (LpyroGlu-Gly L-Arg-p-NA.HCl), with a Km of 80 μM.
The substrate and human enzyme were obtained from Nodia. The reaction was monitored at 405 nm, and the initial rate was determined between 0 and 0.25 absorbance units in 20 min. The reaction mixture contained 250 μM substrate and approximately 1 mU of enzyme in 145 μL of buffer in a final volume of 200 μL. A 50 mM Tris buffer, pH 8.8, was used. From each inhibitor concentration, 5 μL was added, obtaining a final concentration from 0 to 250 μM in a total volume of 0.2 mL. Activity measurements were routinely performed in duplicate. […] IC50 values were obtained by fitting the data with the four-parameter logistics equation using Grafit 5.
where s=slope factor, v=rate, I0=inhibitor concentration, and range=the fitted uninhibited value minus the background. The equation assumes the y falls with increasing x.
(§4) Inhibitor stock solutions were prepared in DMSO and stored at −20° C. Because the compounds described in this paper completely inactivate uPA following pseudofirst-order kinetics, the IC50 value is inversely correlated with the second-order rate constant of inactivation. For a simple pseudofirst-order inactivation process, the activity after incubation with inhibitor (vi) varies with the inhibitor concentration (i), as described in the following equation: […]

[5] = target: T3, uPA; assay: uPA inactivation kinetics from progress curves (kobs versus inhibitor concentration, kapp); conditions: 250 μM substrate, 37° C.
Method: as §4
where vo is the activity in absence of inhibitor, k is the second-order rate constant of inactivation, and t is the time. The inactivation rate constant was determined from the time course of inhibition.
The inhibitor was mixed with the substrate (250 μM final concentration), and the buffer solution with the enzyme was added at the time zero. The inhibitor concentrations were chosen to obtain total inhibition of the enzyme within 20 min. The progress curves show the absorbance of p-nitroanilide produced as a function of time. Initially, no inhibitor is bound to the enzyme, and the tangent to the progress curve (dA/dt) is proportional to the concentration of the free enzyme. The concentration of free enzyme decreases over time due to the kinetics of inhibitor binding, as described above. Progress curves were recorded in pseudofirst-order conditions ([I]0>>[E]0) and with less than 10% conversion of the substrate during the entire time course. In these conditions, dA/dt decreases exponentially with time. The progress curves were fitted with the integrated rate equation to yield a value for kobs, a pseudofirst-order rate constant
At=v0[1−e^−k^obs^t]/kobs+A0
where At=absorbance at time t, A0=absorbance at time zero, and v0=uninhibited initial rate.
The apparent second-order rate constant (kapp) was calculated from the slope of the linear part of the plot of kobs versus the inhibitor concentration ([I]0). In case of competition between the inhibitor and the substrate, kapp is smaller than the “real” second order rate constant k discussed above because a certain fraction of the enzyme is present as an enzyme-substrate complex. kapp depends on the substrate concentration used in the experiment, as described by Lambeir et al.^40 For most final compounds, the kobs versus [I]0 plot was not linear, but could be fitted with a hyperbolic function: kobs=k2[I]0/(K1+[I]0) (two step mechanism). Where K1 is the dissociation constant of the reversible enzyme-inhibitor complex and k2 is the first-order rate constant associated with irreversible modification of the enzyme. A kapp could be calculated as k2/K1.

[6] = target: T4, tPA (recombinant) (Homo sapiens, UniProt P00750); assay: Selectivity: tPA inhibition, substrate Biophen CS-05(88); conditions: for IC50: 15 min preincubation, Tris buffer pH 8.3, 1.25 mM substrate
T4 construct: purchased Nodia
T4 sequence (P00750 36-562, species assumed): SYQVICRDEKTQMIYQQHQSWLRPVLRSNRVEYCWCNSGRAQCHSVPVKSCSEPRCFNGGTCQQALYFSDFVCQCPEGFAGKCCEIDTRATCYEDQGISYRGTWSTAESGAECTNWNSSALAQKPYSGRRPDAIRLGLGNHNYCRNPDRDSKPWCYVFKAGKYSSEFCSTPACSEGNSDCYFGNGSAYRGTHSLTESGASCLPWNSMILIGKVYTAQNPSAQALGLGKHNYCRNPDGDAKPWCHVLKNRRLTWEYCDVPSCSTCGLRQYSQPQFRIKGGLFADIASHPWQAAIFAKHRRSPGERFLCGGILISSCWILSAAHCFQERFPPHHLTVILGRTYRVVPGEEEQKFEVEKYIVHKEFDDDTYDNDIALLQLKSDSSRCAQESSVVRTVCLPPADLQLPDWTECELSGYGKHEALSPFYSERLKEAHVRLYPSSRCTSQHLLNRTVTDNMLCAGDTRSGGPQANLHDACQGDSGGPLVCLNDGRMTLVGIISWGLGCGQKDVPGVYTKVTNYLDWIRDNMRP
Method: as §1, §2, §3

[7] = apparent second-order rate constant from slope of kobs versus [I]0, no asterisk
[8] = asterisked: compound showed a two-step mechanism, kapp calculated as k2/K1

Sequence of FXa (P00742 235-488 limits assumed): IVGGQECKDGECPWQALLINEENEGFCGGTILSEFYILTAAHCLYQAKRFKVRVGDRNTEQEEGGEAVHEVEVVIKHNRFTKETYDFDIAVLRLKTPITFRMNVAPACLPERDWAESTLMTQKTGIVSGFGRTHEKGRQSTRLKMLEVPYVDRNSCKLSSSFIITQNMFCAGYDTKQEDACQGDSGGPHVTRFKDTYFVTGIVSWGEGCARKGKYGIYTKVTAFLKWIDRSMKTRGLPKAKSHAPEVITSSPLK
Sequence of FXa (P00742 41-179 partner limits assumed): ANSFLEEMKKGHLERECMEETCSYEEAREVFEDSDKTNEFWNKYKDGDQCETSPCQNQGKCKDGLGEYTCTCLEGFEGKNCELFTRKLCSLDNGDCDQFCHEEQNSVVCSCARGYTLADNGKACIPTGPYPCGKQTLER

| Molecule | IC50 ([1]; 15 min preincubation, Tris buffer pH 8.3, 522 μM substrate) [µM] | IC50 [2] [µM] | IC50 [3] [µM] | IC50 [4] [µM] | uPA: kapp [5, 7] [M⁻¹ s⁻¹] | IC50 [6] [µM] | FXa % (I) @ 250 [1] | uPA: kapp [5, 8] | tPA % I @ 250 ([6]; at 250 (μM)) [% I @ 250] | FXa % @ 2.5 ([1]; at 2.5 (μM)) [% @ 2.5] |
| --- | --- | --- | --- | --- | --- | --- | --- | --- | --- | --- |
| CCN(CC)c1ccc2c(-c3ccccc3C(=O)N3CCN(C(=O)CCCCCCCn4cc(CCCOC(=O)NC(Cc5ccc(NC(=N)N)cc5)P(=O)(Oc5ccccc5)Oc5ccccc5)nn4)CC3)c3ccc(=[N+](CC)CC)cc-3oc2c1.O=C(O)C(F)(F)F.[Cl-] (stereo not drawn) [Final compound 4, 2,2,2-trifluoroacetic acid, N-(6-(diethylamino)-9-(2-(4-(8-(4-(3-(((1-(diphenoxyphosphoryl)-2-(4-guanidinophenyl)ethyl)carbamoyl)oxy)propyl)-1H-1,2,3-triazol-1-yl)octanoyl)piperazine-1-carbonyl)phenyl)-3H-xanthen-3-ylidene)-N-ethylethanaminium chloride] | 65 ± 14 | 3.5 ± 0.8 | 4.6 ± 2.3 | 0.025 ± 0.007 | 4900 ± 90 | 8 ± 1 |  |  |  |  |
| 2-((1E,3E,5E)-5-(1-(6-((2-(4-(3-(((1-(diphenoxyphosphoryl)-2-(4-guanidino phenyl)ethyl)carbamoyl)oxy)propyl)-1H-1,2,3-triazol-1-yl)ethyl)amino)-6-oxohexyl)-3,3-dimethyl indolin-2-ylidene)penta-1,3-dien-1-yl)-1,3,3-trimethyl-3H-indol-1-ium [Final compound 9] |  | > 2.5 | > 2.5 | 0.0589 ± 0.0017 | 1600 ± 100 |  |  |  |  |  |
| O=C(O)C(F)(F)F.[N-]=[N+]=NCCOCCOCCOC(=O)NC(Cc1ccc(NC(=N)N)cc1)P(=O)(Oc1ccccc1)Oc1ccccc1 (stereo not drawn) [Intermediate 61, 2-(2-(2-azidoethoxy)ethoxy)ethyl 1-(diphenoxyphosphoryl)-2-(4-guanidinophenyl)ethylcarbamate 2,2,2-trifluoroacetate] |  | 13 | 5.7 ± 0.6 | 0.015 ± 0.002 |  |  | 51% @ 250 | 10 × 10^3 ± 4 × 10^3 * M^−1 s^−1 |  |  |
| C#CCOCCOCCOC(=O)NC(Cc1ccc(NC(=N)N)cc1)P(=O)(Oc1ccccc1)Oc1ccccc1.O=C(O)C(F)(F)F (stereo not drawn) [Intermediate 56, 2-(2-(prop-2-ynyloxy)ethoxy)ethyl 1-(diphenoxyphosphoryl)-2-(4-guanidinophenyl)ethylcarbamate 2,2,2-trifluoroacetate] |  | 20 ± 3 | 7.8 ± 0.6 | 0.0085 ± 0.0012 |  | 65 ± 9 | 58% @ 250 | 12 × 10^3 ± 5 × 10^3 * M^−1 s^−1 |  |  |
| C#CCCCOC(=O)NC(Cc1ccc(NC(=N)N)cc1)P(=O)(Oc1ccccc1)Oc1ccccc1.O=C(O)C(F)(F)F (stereo not drawn) [Intermediate 58, pent-4-ynyl 1-(diphenoxyphosphoryl)-2-(4-guanidinophenyl)ethylcarbamate 2,2,2-trifluoroacetate] |  | 12.2 ± 0.3 | 3.4 ± 0.4 | 0.008 ± 0.0005 |  | 29 ± 2 | 50% @ 250 | 30 × 10^3 ± 9 × 10^3 * M^−1 s^−1 |  |  |
| CC1=CC(C)=[N+]2C1=C(CCCCCCCn1cc(CCCOC(=O)NC(Cc3ccc(NC(=N)N)cc3)P(=O)(Oc3ccccc3)Oc3ccccc3)nn1)c1c(C)cc(C)n1[B-]2(F)F.O=C(O)C(F)(F)F (stereo not drawn) [Final compound 6, 10-(7-(4-(3-(((1-(diphenoxyphosphoryl)-2-(4-guanidinophenyl)ethyl)carbamoyl)oxy)propyl)-1-1,2,3-triazol-1-yl)heptyl)-5,5-difluoro-1,3,7,9-tetramethyl-5H-dipyrrolo[1,2-c:2′,1′-f][1,3,2]diazaborinin-4-ium-5-uide 2,2,2-trifluoroacetate] |  | ~125 | 0.674 ± 0.123 | 0.0467 ± 0.0015 |  |  | 19% I @ 250 ^ | 12.2 × 10^2 ± 0.5 × 10^2 * M^−1 s^−1 | 19 |  |
| CCN(CC)c1ccc2c(-c3ccccc3C(=O)N3CCN(C(=O)CCCCCCCn4cc(COCCOC(=O)NC(Cc5ccc(NC(=N)N)cc5)P(=O)(Oc5ccccc5)Oc5ccccc5)nn4)CC3)c3ccc(=[N+](CC)CC)cc-3oc2c1.O=C(O)C(F)(F)F.[Cl-] (stereo not drawn) [Final compound 1, 2,2,2-trifluoroacetic acid, N-(6-(diethylamino)-9-(2-(4-(8-(4-((2-(((1-(diphenoxyphosphoryl)-2-(4-guanidinophenyl)ethyl)carbamoyl)oxy)ethoxy)methyl)-1H-1,2,3-triazol-1-yl)octanoyl)piperazine-1-carbonyl)phenyl)-3H-xanthen-3-ylidene)-N-ethylethanaminium chloride] |  | 7.9 ± 1.7 | 5.4 ± 0.6 | 0.017 ± 0.002 | 1700 ± 100 | 7.9 ± 0.3 |  |  |  | 11 |
| O=C(O)C(F)(F)F.[N-]=[N+]=NCCCCCCOC(=O)NC(Cc1ccc(NC(=N)N)cc1)P(=O)(Oc1ccccc1)Oc1ccccc1 (stereo not drawn) [Intermediate 59, 6-azidohexyl 1-(diphenoxyphosphoryl)-2-(4-guanidinophenyl)ethylcarbamate 2,2,2-trifluoroacetate] |  | 2.4 ± 0.2 | 3.6 ± 0.3 | 0.0096 ± 0.0019 |  | 16.7 ± 1.7 | 61% @ 250 | 14 × 10^3 ± 3 × 10^3 * M^−1 s^−1 |  |  |
| O=C(O)C(F)(F)F.[N-]=[N+]=NCCOCCOC(=O)NC(Cc1ccc(NC(=N)N)cc1)P(=O)(Oc1ccccc1)Oc1ccccc1 (stereo not drawn) [Intermediate 60, 2-(2-azidoethoxy)ethyl 1-(diphenoxyphosphoryl)-2-(4-guanidinophenyl)ethyl carbamate 2,2,2-trifluoroacetate] |  | 11.8 ± 0.6 | 7.9 ± 0.3 | 0.0052 ± 0.001 |  | 56 ± 53 | 57% @ 250 | 19 × 10^3 ± 8 × 10^3 * M^−1 s^−1 |  |  |
| O=C(O)C(F)(F)F.[N-]=[N+]=NCCOCCOCCOCCOC(=O)NC(Cc1ccc(NC(=N)N)cc1)P(=O)(Oc1ccccc1)Oc1ccccc1 (stereo not drawn) [Intermediate 62, 2-(2-(2-(2-azidoethoxy)ethoxy)ethoxy)ethyl 1-(diphenoxyphosphoryl)-2-(4-guanidinophenyl)ethylcarbamate 2,2,2-trifluoroacetate] |  | 29 ± 5 | 9 ± 0.7 | 0.015 ± 0.002 |  | 70 ± 11 | 48% @ 250 | 9 × 10^3 ± 4 × 10^3 * M^−1 s^−1 |  |  |
